Measurements as given in CN117800914A, “一种抗SARS-CoV-2病毒奥密克戎突变种抑制剂” (Second Military Medical University SMMU, priority 2023, dated 2024).

Tested on: SARS-CoV-2 Omicron mutant BA.2 (SARS-CoV-2奥密克戎毒突变种BA.2)
Type: cell-based, SARS-CoV-2 Omicron BA.2
Settings: 20 h

Q: Which IC50 does the source give for `COc1cc2cc(c1)NC(=O)C[C@@H](OC)/C=C/C=C/C=C/C[C@H](O)[C@H](C)[C@@H](OC(=O)[C@@H](C)NC(=O)CC(C)C)/C(C)=C\CC2` [C7] here?
A: The IC50 was 825 nM.

Q: Which IC50 does the source give for `CO[C@H]1/C=C/C=C/C=C/C[C@H](O)[C@H](C)[C@@H](OC(=O)[C@@H](C)NC(=O)CC(C)C)/C(C)=C\CCc2ccc(F)c(c2)NC(=O)C1` [B3] here?
A: The IC50 was 1190 nM.

Q: Which IC50 does the source give for `CO[C@H]1/C=C/C=C/C=C/C[C@H](OC(=O)[C@@H](C)NC(=O)CC(C)C)[C@H](C)[C@@H](O)/C(C)=C\CCc2ccc(F)c(c2)NC(=O)C1` [B1] here?
A: Its IC50 is 300 nM.

Q: Which IC50 does the source give for `CO[C@H]1/C=C/C=C/C=C/C[C@H](OC(=O)[C@@H](C)NC(=O)CCC(C)C)[C@H](C)[C@@H](O)/C(CO)=C\CCc2cc(F)cc(c2)NC(=O)C1` [A6] here?
A: Its IC50 is 450 nM.

Q: With `CO[C@H]1/C=C/C=C/C=C/C[C@H](OC(=O)[C@@H](C)NC(=O)CC(C)C)[C@H](C)[C@@H](O)/C(C)=C\CCc2cccc(c2)NC(=O)C1` [D1] as the compound, how does the IC50 read?
A: The IC50 was greater than 5000 nM.

Q: For `COc1cc2c(O)c(c1)NC(=O)C[C@@H](OC)/C=C/C=C/C=C/C[C@H](O)[C@H](C)[C@@H](OC(=O)[C@@H](C)NC(=O)CC(C)C)/C(C)=C\CC2` [C8], which IC50 is on record?
A: Its IC50 is 400 nM.

Q: With `CO[C@H]1/C=C/C=C/C=C/C[C@H](OC(=O)[C@@H](C)NC(=O)CCC(C)C)[C@H](C)[C@@H](O)/C(C)=C\CCc2ccc(F)c(c2)NC(=O)C1` [B8] as the compound, how does the IC50 read?
A: The IC50 was 1100 nM.

Q: Which IC50 does the source give for `C/C=C(\C)C(=O)N[C@H](C)C(=O)O[C@H]1C/C=C/C=C/C=C/[C@H](OC)CC(=O)Nc2cc(ccc2F)CC/C=C(/C)[C@H](O)[C@H]1C` [B6] here?
A: The IC50 was 413 nM.

Q: With `CCC(C)C(=O)N[C@H](C)C(=O)O[C@H]1C/C=C/C=C/C=C/[C@H](OC)CC(=O)Nc2cc(ccc2F)CC/C=C(/C)[C@H](O)[C@H]1C` (some centres unmarked) [B5] as the compound, how does the IC50 read?
A: The IC50 was 200 nM.

Tested on: SARS-CoV-2 mutant strains (SARS-CoV-2突变株)
Settings: treatment of SARS-CoV-2 mutant strains; cited from earlier work

Q: Which “clinical performance in treating SARS-CoV-2 mutant strains (in words)” value does the source give for `CCC(CC)COC(=O)[C@H](C)N[P@](=O)(OC[C@H]1O[C@@](C#N)(c2ccc3c(N)ncnn23)[C@H](O)[C@@H]1O)Oc1ccccc1` [瑞德西韦] here?
A: The value was “不尽如人意”.

Q: For `NC(=O)c1nc(F)c[nH]c1=O` [法维拉韦], which “clinical performance in treating SARS-CoV-2 mutant strains (in words)” value is on record?
A: The value was “不尽如人意”.
